Assay [1] relates to differentiated L6-myotubes. The experiment in a line: cAMP production relative to isoprenaline (Biological example 2 of WO 2019/053427). In kind it is cell-based. As to conditions: 0.25 h, compound at 10 μM, activity relative to isoproterenol at 10 μM. The method in brief:
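Values are cAMP levels relative to isoprenaline at equal concentration (final 1×10^−5 M for both). Stimulation lasted 15 min in differentiated L6 myotubes, using HBSS buffer (pH 7.4) containing 1 mM IBMX, 5 mM HEPES and 1% BSA.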
In general terms: Cyclic AMP is a second messenger, typically raised through Gs and lowered through Gi signalling.

The subject of assay [2] is differentiated L6-myotubes. In words: Glucose uptake screen (Biological example 1 of WO 2019/053427). It counts as cell-based. To be noted: compound at 10 μM, activity relative to isoproterenol at 10 μM, read-out: Biological example 1 of WO 2019/053427 (GU). The method in brief: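 Uptake was read out as ^3H-2-deoxyglucose (50 nM, 10 min) radioactivity in NaOH lysates. Beforehand, overnight-starved, differentiated L6 myotubes received compound at 1×10^−5 M with ICI-118551 present for 1 h 40 min, followed by fresh agonist for a further 20 min in glucose-free medium.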

For `CC(C)(C[C@H]1CC[C@@H](NC(=O)C(F)(F)F)CC1)NC[C@H](O)c1cccc(F)c1` [Compound 454, N-[(1S,4s)-4-{2-[(R)-2-(m-fluorophenyl)-2-hydroxyethylamino]-2-methylpropyl}cyclohexyl]trifluoroacetamide], the figures for the Emax at 10 µM in assay [1] and in assay [2] were below 25% and above 75%, respectively.
In the same order, the values of `CC(C)(C[C@H]1CC[C@@H](NC(=O)C(C)(C)C)CC1)NC[C@H](O)c1cccc(F)c1` [Compound 455, N-[(1S,4s)-4-{2-[(R)-2-(m-fluorophenyl)-2-hydroxyethylamino]-2-methylpropyl}cyclohexyl]2,2-dimethylpropionamide] are below 25% and 50 to 75%.
On to `CC(C)(C[C@H]1CC[C@@H](N)CC1)NC[C@H](O)c1cccc(F)c1` [Compound 456, (R)-2-{1,1-dimethyl-2-[(1s,4S)-4-aminocyclohexyl]ethylamino}-1-(m-fluorophenyl)-1-ethanol], for which the results for the Emax at 10 µM in assay [1] and in assay [2] were below 25% and above 75%, respectively.
On to `CN(C)C(=O)N[C@H]1CC[C@@H](CC(C)(C)NC[C@H](O)c2cccc(F)c2)CC1` [Compound 457, (R)-2-{1,1-dimethyl-2-[(1s,4S)-4-(3,3-dimethylureido)cyclohexyl]ethylamino}-1-(m-fluorophenyl)-1-ethanol], for which the Emax at 10 µM in assay [1] was 25 to 50%; in assay [2], above 75%.
With `CC(C)(C[C@H]1CC[C@H](NS(=O)(=O)C(F)(F)F)CC1)NC[C@H](O)c1cccc(F)c1` [Compound 458, (R)-2-{1,1-dimethyl-2-[(1r,4R)-4-(trifluoromesylamino)cyclohexyl]ethylamino}-1-(m-fluorophenyl)-1-ethanol], the Emax at 10 µM was below 25% in assay [1] and above 75% in assay [2].
With `CC(C)(C[C@H]1CC[C@H](NC(=O)OC(C)(C)C)CC1)NC[C@H](O)c1cccc(C(F)(F)F)n1` [Compound 459, (1S,4r)-4-(2-{(S)-2-hydroxy-2-[6-(trifluoromethyl)-2-pyridyl]ethylamino}-2-methylpropyl)cyclohexyl 2-methyl-2-propanecabamate], the Emax at 10 µM in assay [1] was below 25%; in assay [2], above 75%.
In the same order, the values of `CC(=O)N[C@H]1CC[C@H](CC(C)(C)NC[C@H](O)c2cccc(C(F)(F)F)n2)CC1` [Compound 460, N-[(1S,4r)-4-(2-{(S)-2-hydroxy-2-[6-(trifluoromethyl)-2-pyridyl]ethylamino}-2-methylpropyl)cyclohexyl]acetamide] are below 25% and 50 to 75%.
In the same order, the values of `CC(C)(C[C@H]1CC[C@H](NS(C)(=O)=O)CC1)NC[C@H](O)c1cccc(C(F)(F)F)n1` [Compound 461, (S)-2-{1,1-dimethyl-2-[(1r,4S)-4-(mesylamino)cyclohexyl]ethylamino}-1-[6-(trifluoromethyl)-2-pyridyl]-1-ethanol] are below 25% and 25 to 50%.
With `CC(=O)N[C@H]1CC[C@@H](CC(C)(C)NC[C@H](O)c2cccc(C(F)(F)F)n2)CC1` [Compound 462, N-[(1R,4s)-4-(2-{(S)-2-hydroxy-2-[6-(trifluoromethyl)-2-pyridyl]ethylamino}-2-methylpropyl)cyclohexyl]acetamide], the Emax at 10 µM in assay [1] is below 25%; in assay [2] it was 25 to 50%.
The like results for `CC(C)(C[C@H]1CC[C@@H](NS(C)(=O)=O)CC1)NC[C@H](O)c1cccc(C(F)(F)F)n1` [Compound 463, (S)-2-{1,1-dimethyl-2-[(1s,4R)-4-(mesylamino)cyclohexyl]ethylamino}-1-[6-(trifluoromethyl)-2-pyridyl]-1-ethanol] were, in that order, below 25% and 50 to 75%.
On to `CN(C)S(=O)(=O)[C@H]1CC[C@H](CC(C)(C)NC[C@H](O)c2cccc(F)c2)CC1` [Compound 464, (R)-2-{1,1-dimethyl-2-[(1r,4R)-4-(dimethylaminosulfonyl)cyclohexyl]ethylamino}-1-(m-fluorophenyl)-1-ethanol], for which the Emax at 10 µM in assay [1] and in assay [2] was 25 to 50% each time.
For the molecule `CN(C)S(=O)(=O)[C@H]1CC[C@H](CC(C)(C)NC[C@H](O)c2cncc(F)c2)CC1` [Compound 465, (R)-2-{1,1-dimethyl-2-[(1r,4R)-4-(dimethylaminosulfonyl)cyclohexyl]ethylamino}-1-(5-fluoro-3-pyridyl)-1-ethanol], the Emax at 10 µM was 25 to 50% in assay [1] and 50 to 75% in assay [2].
With `CC(C)(C[C@H]1CC[C@@H](N)CC1)NC[C@H](O)c1cncc(F)c1` [Compound 466, (R)-2-{1,1-dimethyl-2-[(1s,4S)-4-aminocyclohexyl]ethylamino}-1-(5-fluoro-3-pyridyl)-1-ethanol], the figures for the Emax at 10 µM in assay [1] and in assay [2] were below 25% and 50 to 75%, respectively.
Consider `CC(=O)N[C@H]1CC[C@@H](CC(C)(C)NC[C@H](O)c2cncc(F)c2)CC1` [Compound 467, N-[(1S,4s)-4-{2-[(R)-2-(5-fluoro-3-pyridyl)-2-hydroxyethylamino]-2-methylpropyl}cyclohexyl]acetamide], for which the figures for the Emax at 10 µM in assay [1] and in assay [2] were below 25% and above 75%, respectively.
Consider `CC(C)(C[C@H]1CC[C@@H](NS(C)(=O)=O)CC1)NC[C@H](O)c1cncc(F)c1` [Compound 468, (R)-2-{1,1-dimethyl-2-[(1s,4S)-4-(mesylamino)cyclohexyl]ethylamino}-1-(5-fluoro-3-pyridyl)-1-ethanol], for which the Emax at 10 µM is below 25% in assay [1] and above 75% in assay [2].
Regarding `CC(C)(C[C@H]1CC[C@@H](NC(=O)OC(C)(C)C)CC1)NC[C@H](O)c1cncc(F)c1` [Compound 469], the figures for the Emax at 10 µM in assay [1] and in assay [2] were below 25% and above 75%, respectively.
With `CN(C)S(=O)(=O)[C@H]1CC[C@@H](CC(C)(C)NC[C@H](O)c2cccc(F)c2)CC1` [Compound 470, (R)-2-{1,1-dimethyl-2-[(1s,4S)-4-(dimethylaminosulfonyl)cyclohexyl]ethylamino}-1-(m-fluorophenyl)-1-ethanol], the Emax at 10 µM is 25 to 50% in assay [1] and above 75% in assay [2].
Regarding `CN(C)S(=O)(=O)[C@H]1CC[C@@H](CC(C)(C)NC[C@H](O)c2cncc(F)c2)CC1` [Compound 471, (R)-2-{1,1-dimethyl-2-[(1s,4S)-4-(dimethylaminosulfonyl)cyclohexyl]ethylamino}-1-(5-fluoro-3-pyridyl)-1-ethanol], the Emax at 10 µM is 50 to 75% in assay [1] and above 75% in assay [2].
Regarding `CS(=O)(=O)N(Cc1ccccc1)c1ccc(CC23CCC([C@@H](O)c4cccc(F)c4)(CC2)N3)cc1` [Compound 472, (S)-[4-({p-[(benzyl)-N-mesylamino]phenyl}methyl)-7-azabicyclo[2.2.1]hept-1-yl](m-fluorophenyl)methanol], the Emax at 10 µM in assay [1] was below 25%; in assay [2] it was 25 to 50%.
For `CS(=O)(=O)N(Cc1ccccc1)c1ccc(CC23CCC([C@H](O)c4cccc(F)c4)(CC2)N3)cc1` [Compound 473, (R)-[4-({p-[(benzyl)-N-mesylamino]phenyl}methyl)-7-azabicyclo[2.2.1]hept-1-yl](m-fluorophenyl)methanol], the figures for the Emax at 10 µM in assay [1] and in assay [2] were below 25% and 25 to 50%, respectively.
For `CS(=O)(=O)Nc1ccc(CC23CCC([C@@H](O)c4cccc(F)c4)(CC2)N3)cc1` [Compound 474, (S)-(m-fluorophenyl)(4-{[p-(mesylamino)phenyl]methyl}-7-azabicyclo[2.2.1]hept-1-yl)methanol], the Emax at 10 µM in assay [1] is below 25%; in assay [2] it was 50 to 75%.
The like results for `CS(=O)(=O)Nc1ccc(CC23CCC([C@H](O)c4cccc(F)c4)(CC2)N3)cc1` [Compound 475, (R)-(m-fluorophenyl)(4-{[p-(mesylamino)phenyl]methyl}-7-azabicyclo[2.2.1]hept-1-yl)methanol] were, in that order, below 25% and 50 to 75%.
Consider `CNS(=O)(=O)[C@H]1CC[C@H](CC(C)(C)NC[C@H](O)c2cccc(F)c2)CC1` [Compound 476, (R)-2-{1,1-dimethyl-2-[(1r,4R)-4-(methylaminosulfonyl)cyclohexyl]ethylamino}-1-(m-fluorophenyl)-1-ethanol], for which the Emax at 10 µM in assay [1] is 25 to 50%; in assay [2] it was above 75%.
In the same order, the values of `CNS(=O)(=O)[C@H]1CC[C@@H](CC(C)(C)NC[C@H](O)c2cccc(F)c2)CC1` [Compound 477, (R)-2-{1,1-dimethyl-2-[(1s,4S)-4-(methylaminosulfonyl)cyclohexyl]ethylamino}-1-(m-fluorophenyl)-1-ethanol] are below 25% and 50 to 75%.
In the same order, the values of `CNS(=O)(=O)[C@H]1CC[C@H](CC(C)(C)NC[C@H](O)c2cncc(F)c2)CC1` [Compound 478, (R)-2-{1,1-dimethyl-2-[(1r,4R)-4-(methylaminosulfonyl)cyclohexyl]ethylamino}-1-(5-fluoro-3-pyridyl)-1-ethanol] are below 25% and 25 to 50%.
Turning to `CC(=O)N(Cc1ccccc1)[C@H]1CC[C@@H](C[C@@H]2CC[C@H]([C@H](O)c3cccc(F)c3)N2)CC1` [Compound 479, N-[(1R,4s)-4-({(2S,5R)-5-[(S)-(m-fluorophenyl)hydroxymethyl]-2-pyrrolidinyl}methyl)cyclohexyl]-N-benzylacetamide], the Emax at 10 µM in assay [1] and in assay [2] was below 25% throughout.
As to `CC(=O)N(Cc1ccccc1)[C@H]1CC[C@H](C[C@@H]2CC[C@H]([C@@H](O)c3cccc(F)c3)N2)CC1` [Compound 481, N-[(1S,4r)-4-({(2S,5R)-5-[(S)-(m-fluorophenyl)hydroxymethyl]-2-pyrrolidinyl}methyl)cyclohexyl]-N-benzylacetamide], the Emax at 10 µM in assay [1] and in assay [2] was below 25% each time.

The values above are taken from patent US20260256751A1, “COMBINATION OF BETA-2-ADRENERGIC RECEPTOR AGONISTS AND GLP-1 RECEPTOR AGONISTS FOR USE IN TREATING HYPERGLYCAEMIA” (ATROGI AB, priority 2023, published 2026).
